Reference: patent US20210162028A1, “Methods for Inducing Intermittent Fasting and Modulating Autophagy” (The Hong Kong Polytechnic University, priority 2019, published 2021)
Entries after “also recorded” stand apart in the source; their conditions may differ.

Experiments:
Assay type in all cases: in vivo, mouse
[1] = Bodyweight of treated mice; settings: DIO C57BL/6J male mice on HFD
[2] = Hepatic steatosis (oil Red O / H&E staining, liver triglyceride); settings: DIO C57BL/6J male mice on HFD, 11 weeks after treatment
hepatocyte = test: Transmission electron microscopy of liver (hepatocytes); settings: DIO C57BL/6J male mice on HFD, 3 weeks, Day 3
Text: FIG. 47 illustrates the liver examined by transmission electron microscopy at Day 1, Day 3, Day 5 and Day 7 of the 7-day intermittent after N-ABD094-rhArg injection.
The presence of autophagosome in liver after treatment for 3 weeks were examined by TEM (FIGS. 62, 63 and 64).
The presence of autophagosome in liver after treatment for 3 weeks were examined by transmission electron microscopy (FIGS. 71 and 72).

[3] = Insulin tolerance test (ITT); settings: DIO C57BL/6J male mice on HFD, after 6 weeks
Text: In terms of reversing insulin resistance on pre-existing obese mice, insulin tolerance test (ITT) was employed (FIG. 59).
In terms of reversing insulin resistance on pre-existing obese mice, insulin tolerance test (ITT) was employed (FIG. 68A).

[4] = Daily food intake / 7-day intermittent fasting cycle in mice; settings: DIO C57BL/6J male mice on HFD
Text: One of the most noticeable effects of intermittent fasting is reduction of bodyweight. […] Specifically, C57BL/6J, which is the most commonly used mouse strain for polygenic obesity model, was used in the study. It is well-reported that C57BL/6J male mice feeding on a high-fat diet will have prominent weight gain, become obese and develop hyperinsulinemia, hyperglycemia, impaired glucose tolerance and insulin resistance [Gallou-Kabani et al., 2007, Obesity 15(8):1996-2005]. Obesity was induced in C57BL/6J male mice via feeding ad libitum a high-fat diet containing 60 kcal % fat (HFD; Research Diets, D12492) for 12-14 weeks starting from 5-week old. These mice are referred as diet-induced obese (DIO) mice. DIO mice were stratified according to bodyweight into 2 groups. […] Both groups of mice continued to feed ad libitum on the HFD throughout the treatment period. One group of age-matched C57BL/6J male mice feeding ad libitum on an ordinary rodent chow diet (CD; LabDiet, 50IF/6F) and injected with vehicle served as the lean control [CD (vehicle) group]. Food intake and bodyweight of mice were measured daily. […] DIO mice were injected with rhArg on Day 0, which was Day 7 of the previous cycle. Similarly, Day 7 of the cycle shown in FIG. 1B was Day 0 of the next cycle. […] Bodyweight gain is one of the biomarkers related to aging.
C57BL/6J male mice were fed a high-fat diet from 5-week old for 12 weeks. They were then stratified into 3 groups according to their bodyweight and individually caged: (i) one group of mice received i.p. injection of 600 U N-ABD094-rhArg (SEQ ID NO: 50) once a week [HFD (rhArg) group] and was fed ad libitum the HFD for 5 weeks; (ii) one group of mice received i.p. injection of saline once a week, and was fed a predetermined amount of HFD on each day to artificially create a 7-day intermittent fasting cycle that mimics the pattern of food intake of mice administered once a week with rhArg [HFD (artificial IF) group)]; (iii) one group of mice was injected with saline once a week and was fed ad libitum the HFD [HFD (vehicle) group].

[5] = Fat pad and organ mass at end of treatment; settings: DIO C57BL/6J male mice on HFD
[6] = Glucose tolerance test (GTT); settings: DIO C57BL/6J male mice on HFD, after 7 weeks
[7] = rhArg once a week alone or 0.33 mg RA daily alone
[8] = rhArg weekly and/or 0.33 mg RA daily
[9] = rhArg weekly and/or 0.33 mg/day RA
[10] = 300 U/week rhArg and/or 300 mg/kg metformin
[11] = 300 U rhArg once a week and/or 300 mg/kg metformin daily

For `CC1=C(/C=C/C(C)=C/C=C/C(C)=C/C(=O)O)C(C)(C)CCC1` [RA, all-trans retinoic acid, reference compound], the “Change in bodyweight under single treatment” value (shortened to “Change in bodyweight”) [1, 7] was “could only prevent further gain in bodyweight, but did not result in weight loss; also recorded: stable body weight without further increase”, the “Lipid in liver (H&E staining)” value ([2]; rhArg and/or RA) was “significant effect on diminishing lipid in liver” and the “TEM of liver: autophagosomes” value (hepatocyte; [8]) was “autophagosome was rarely seen; also recorded: no autophagosome is observed”. The “TEM of liver: lipid droplets” value (hepatocyte; [8]) was “significant decrease in lipid droplet size”, the “Insulin sensitivity in ITT” value [3, 9] was “marginal effect on improving insulin sensitivity but not reach statistical significant” and the “Pattern of food intake (intermittent fasting cycle)” value ([4]; 200 U rhArg i.p. once a week and/or 0.33 mg RA daily) was “stable”. The “Total food intake per week, less than HFD (vehicle) group” value ([4]; 200 U rhArg i.p. once a week and/or 0.33 mg RA daily by gastric feeding, 10 weeks) was “slight, but insignificant decrease”, the “Mass of organs including liver, pancreas and BAT” value [5, 7] was “can already reduce the mass of most organs” and the “Visceral and subcutaneous fat mass” value ([5]; rhArg once a week and/or 0.33 mg RA daily) was “did not reduce body fat”. The “Glucose tolerance in GTT” value [6, 9] was “cannot relieve glucose intolerance”.

For `CN(C)C(=N)N=C(N)N` [metformin, reference compound], the “Change in bodyweight” value ([1]; 300 U rhArg once a week alone or 300 mg/kg metformin daily alone) was “stable body weight without further increase in body mass”, the “Change in bodyweight” value ([1]; 300 U rhArg once a week alone or 300 mg/kg metformin daily alone, listed as Met) was “could only prevent further gain in bodyweight, but did not result in weight loss” and the “Lipid in liver (H&E staining)” value ([2]; rhArg and/or metformin) was “slight effect of diminishing lipid in liver”. The “TEM of liver: autophagosomes” value (hepatocyte; [10]) was “no autophagosome is observed; also recorded: autophagosome was rarely seen”, the “TEM of liver: lipid droplets” value (hepatocyte; [10]) was “significant decrease in lipid droplet size” and the “Insulin sensitivity in ITT” value [3, 10] was “cannot relieve insulin resistant”. The “Pattern of food intake (intermittent fasting cycle)” value ([4]; 300 U rhArg i.p. once a week and/or 300 mg/kg metformin daily) was “stable”, the “Total food intake per week, less than HFD (vehicle) group” value ([4]; 300 U rhArg i.p. once a week and/or 300 mg/kg metformin daily by gastric feeding, 9 weeks) was 13% and the “Mass of organs including liver, kidney and BAT” value [5, 11] was “cannot reduce the mass of most organs”. The “Visceral and subcutaneous fat mass” value [5, 11] was “did not reduce body fat” and the “Glucose tolerance in GTT” value [6, 10] was “cannot relieve glucose intolerance”.
